How the values were obtained:
[1] = target: T1, mutEGFR (D770_N771insNPG, T790) (Homo sapiens, UniProt P00533, INS770NPG/T790M); assay: mutEGFR (D770_N771insNPG, T790) kinase assay; type: biochemical; details: Table 2a, D770_N771insNPG
T1 construct: exact insNPG construct not described; in-house EGFR proteins were N-terminal GST fusions from baculovirus/insect cells (borders R669-A1210 given only for WT, insSVD, insASV)
Text: The different EGFR proteins used in the biochemical kinase activity inhibition assays were generated inhouse by expression in insect cells using Baculo Virus system and subsequent purification as described in the following paragraphs.
The cDNAs encoding the various protein sequences from human EGFR human (P00533) were optimized for expression in eukaryotic cells and synthesized by the GeneArt Technology at Life Technologies.

[2] = target: T2, mutEGFR (D770_N771insSVD) (Homo sapiens, UniProt P00533, DUP768-770); assay: Exon20-Mutant-EGFR (D770_N771insSVD) kinase assay (TR-FRET); type: biochemical; details: mutEGFR (D770_N771insSVD) kinase assay IC50, Table 2a; D770_N771insSVD; 2 mM ATP
T2 construct: GST-EGFR #3 (SVD between D770 and N771); made in house; host or cells: Sf9 insect cells (baculovirus)

[3] = test system: BA/F3 (insSVD) cells; assay: Ba/F3-EGFR-insSVD cell survival assay (Cell Titer-Glo); type: cell-based; details: Mus musculus, BaF3, 48 h, Table 3a, cell survival, Cell Titer-Glo, with 10 ng/ml EGF, without IL-3
Outline: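 Ba/F3 cells stably expressing retroviral EGFR-insSVD or insSVD T790M, grown without IL-3 on 10 ng/ml EGF, 4000 cells/well. Compound pinned in, 48 h at 37° C. Viability by CellTiter-Glo luminescence.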

T1 sequence (P00533 with tags, fused parts or gaps INS770NPG/T790M limits assumed): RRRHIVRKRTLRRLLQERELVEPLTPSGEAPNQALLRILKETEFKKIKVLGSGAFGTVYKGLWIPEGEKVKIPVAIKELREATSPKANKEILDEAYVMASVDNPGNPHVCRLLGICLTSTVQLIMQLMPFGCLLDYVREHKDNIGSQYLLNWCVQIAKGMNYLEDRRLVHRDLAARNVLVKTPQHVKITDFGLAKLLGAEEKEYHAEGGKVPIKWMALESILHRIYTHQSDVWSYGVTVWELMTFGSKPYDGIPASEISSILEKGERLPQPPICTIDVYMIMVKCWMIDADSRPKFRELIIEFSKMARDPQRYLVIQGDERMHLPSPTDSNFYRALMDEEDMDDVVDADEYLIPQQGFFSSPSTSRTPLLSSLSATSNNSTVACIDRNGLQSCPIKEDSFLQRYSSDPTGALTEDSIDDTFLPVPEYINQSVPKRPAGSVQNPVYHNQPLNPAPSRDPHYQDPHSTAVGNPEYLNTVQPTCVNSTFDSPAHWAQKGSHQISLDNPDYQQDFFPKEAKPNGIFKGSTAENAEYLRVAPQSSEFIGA
T2 sequence (P00533 with tags, fused parts or gaps DUP768-770): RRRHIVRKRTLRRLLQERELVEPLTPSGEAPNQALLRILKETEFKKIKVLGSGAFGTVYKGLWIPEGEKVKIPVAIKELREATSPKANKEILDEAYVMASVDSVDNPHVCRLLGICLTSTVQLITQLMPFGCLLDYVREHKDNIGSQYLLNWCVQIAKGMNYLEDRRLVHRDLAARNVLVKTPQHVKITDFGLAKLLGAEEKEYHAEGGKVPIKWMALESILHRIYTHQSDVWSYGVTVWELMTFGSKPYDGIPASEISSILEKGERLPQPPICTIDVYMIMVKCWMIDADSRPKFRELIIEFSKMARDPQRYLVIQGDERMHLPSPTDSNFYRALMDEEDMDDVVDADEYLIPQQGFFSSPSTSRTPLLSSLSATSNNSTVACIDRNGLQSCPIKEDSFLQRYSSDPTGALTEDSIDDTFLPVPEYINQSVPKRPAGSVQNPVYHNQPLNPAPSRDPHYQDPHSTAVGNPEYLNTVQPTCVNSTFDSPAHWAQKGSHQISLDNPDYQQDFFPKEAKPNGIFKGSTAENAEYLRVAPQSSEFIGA

| IC50 [1] [nM] | IC50 [2] [nM] | Structure (SMILES) | IC50 [3] [nM] |
| --- | --- | --- | --- |
| 18.5 | 3.16 | C=CC(=O)N1CCn2nc(-c3ccc(C#N)cc3)c(-c3ccncc3)c2C1 [Example 43, 4-[5-acryloyl-3-(pyridin-4-yl)-4,5,6,7-tetrahydropyrazolo[1,5-a]pyrazin-2-yl]benzonitrile] | 131 |
| 2.8 | 0.989 | C=CC(=O)N1CCn2nc(-c3ccc(C(F)(F)F)cc3)c(-c3ccncc3)c2C1 [Example 44, 1-[3-(pyridin-4-yl)-2-[4-(trifluoromethyl)phenyl]-6,7-dihydropyrazolo[1,5-a]pyrazin-5(4H)-yl]prop-2-en-1-one] | 39 |
| 158 | 973 | C=CC(=O)N1CCn2nc(-c3cccc(C#N)c3)c(-c3ccnc4[nH]cc(C)c34)c2C1 [Example 45] | 218 |
| 555 | 770 | C=CC(=O)N1CCn2nc(-c3ccc(OC)c(F)c3)c(-c3ccnc4[nH]cc(C)c34)c2C1 [Example 46, 1-[2-(3-fluoro-4-methoxyphenyl)-3-(3-methyl-1H-pyrrolo[2,3-b]pyridin-4-yl)-6,7-dihydropyrazolo[1,5-a]pyrazin-5(4H)-yl]prop-2-en-1-one] | 170 |
| 666 | 864 | C=CC(=O)N1CCn2nc(-c3ccc(OC)cc3)c(-c3ccnc4[nH]cc(C)c34)c2C1 [Example 47, 1-[2-(4-methoxyphenyl)-3-(3-methyl-1H-pyrrolo[2,3-b]pyridin-4-yl)-6,7-dihydropyrazolo[1,5-a]pyrazin-5(4H)-yl]prop-2-en-1-one] | 231 |
| 1270 | 242 | C=CC(=O)N1CCn2nc(-c3ccc(C(F)(F)F)cc3)c(-c3ccnc4[nH]cc(C)c34)c2C1 [Example 48, 1-[3-(3-methyl-1H-pyrrolo[2,3-b]pyridin-4-yl)-2-[4-(trifluoromethyl)phenyl]-6,7-dihydropyrazolo[1,5-a]pyrazin-5(4H)-yl]prop-2-en-1-one] | 90.5 |
| 121 | 112 | C=CC(=O)N1CCn2nc(-c3ccc(Cl)cc3F)c(-c3ccnc4[nH]cc(C)c34)c2C1 [Example 49, 1-[2-(4-chloro-2-fluorophenyl)-3-(3-methyl-1H-pyrrolo[2,3-b]pyridin-4-yl)-6,7-dihydropyrazolo[1,5-a]pyrazin-5(4H)-yl]prop-2-en-1-one] | 71.7 |
| 135 | 8.5 | C=CC(=O)N1CCn2nc(-c3ccc(Cl)cc3F)c(-c3ccncc3C)c2C1 [Example 50, 1-[2-(4-chloro-2-fluorophenyl)-3-(3-methylpyridin-4-yl)-6,7-dihydropyrazolo[1,5-a]pyrazin-5(4H)-yl]prop-2-en-1-one] | 156 |
| 25.7 | 6.64 | C=CC(=O)N1CCn2nc(-c3ccc(Cl)cc3F)c(-c3c(F)cnc4[nH]ccc34)c2C1 [Example 51, 1-[2-(4-chloro-2-fluorophenyl)-3-(5-fluoro-1H-pyrrolo[2,3-b]pyridin-4-yl)-6,7-dihydropyrazolo[1,5-a]pyrazin-5(4H)-yl]prop-2-en-1-one] | 54.7 |
| 22.7 | 6.05 | C=CC(=O)N1CCn2nc(-c3ccc(Cl)cc3F)c(-c3ccnc4[nH]cc(F)c34)c2C1 [Example 52, 1-[2-(4-chloro-2-fluorophenyl)-3-(3-fluoro-1H-pyrolo[2,3-b]pyridin-4-yl)-6,7-dihydropyrazolo[1,5-a]pyrazin-5(4H)-yl]prop-2-en-1-one] | 35.5 |
| 7.05 | 0.997 | C=CC(=O)N1CCn2nc(-c3ccc(Cl)cc3F)c(-c3ccnc(NC)c3)c2C1 [Example 53, 1-[2-(4-chloro-2-fluorophenyl)-3-[2-(methylamino)pyridin-4-yl]-6,7-dihydropyrazolo[1,5-a]pyrazin-5(4H)-yl]prop-2-en-1-one] | 44.2 |
| 3470 | 89 | C=CC(=O)N1CCn2nc(-c3ccc(C(F)(F)F)cc3)c(-c3ccnc4[nH]c(C)cc34)c2C1 [Example 54, 1-[3-(2-methyl-1H-pyrrolo[2,3-b]pyridin-4-yl)-2-[4-(trifluoromethyl)phenyl]-6,7-dihydropyrazolo[1,5-a]pyrazin-5(4H)-yl]prop-2-en-1-one] | 498 |
| 2540 | 350 | C=CC(=O)N1CCn2nc(-c3ccc(C(F)(F)F)cc3)c(-c3ccncc3C3CC3)c2C1 [Example 55, 1-[3-(3-cyclopropylpyridin-4-yl)-2-[4-(trifluoromethyl)phenyl]-6,7-dihydropyrazolo[1,5-a]pyrazin-5(4H)-yl]prop-2-en-1-one] | 744 |

Continued, compound first:

| Structure (SMILES) | IC50 [1] [nM] | IC50 [2] [nM] | IC50 [3] [nM] |
| --- | --- | --- | --- |
| COc1ccccc1-c1nn2c(c1-c1ccncc1)CN(C(=O)/C=C/CN(C)C)CC2 [Example 28, (2E)-4-(dimethylamino)-1-[2-(2-methoxyphenyl)-3-(pyridin-4-yl)-6,7-dihydropyrazolo[1,5-a]pyrazin-5(4H)-yl]but-2-en-1-one] | 35.2 | 70.2 | 3980 |
| CN(C)C/C=C/C(=O)N1CCn2nc(-c3ccc(Cl)c(Cl)c3)c(-c3ccncc3)c2C1 [Example 29, (2E)-1-[2-(3,4-dichlorophenyl)-3-(pyridin-4-yl)-6,7-dihydropyrazolo[1,5-a]pyrazin-5(4H)-yl]-4-(dimethylamino)but-2-en-1-one] | 1.54 | 1.19 | 422 |
| COc1ccc(-c2nn3c(c2-c2ccncc2)CN(C(=O)/C=C/CN(C)C)CC3)cc1 [Example 30, (2E)-4-(dimethylamino)-1-[2-(4-methoxyphenyl)-3-(pyridin-4-yl)-6,7-dihydropyrazolo[1,5-a]pyrazin-5(4H)-yl]but-2-en-1-one] | 23.7 | 7.25 | 1080 |
| COc1ccc(-c2nn3c(c2-c2ccncc2)CN(C(=O)/C=C/CN(C)C)CC3)cc1F [Example 31, (2E)-4-(dimethylamino)-1-[2-(3-fluoro-4-methoxyphenyl)-3-(pyridin-4-yl)-6,7-dihydropyrazolo[1,5-a]pyrazin-5(4H)-yl]but-2-en-1-one] | 18.8 | 4.05 | 874 |
| CCc1cc(-c2nn3c(c2-c2ccncc2)CN(C(=O)/C=C/CN(C)C)CC3)ccc1Cl [Example 32, formic acid-(2E)-1-[2-(4-chloro-3-ethylphenyl)-3-(pyridin-4-yl)-6,7-dihydropyrazolo[1,5-a]pyrazin-5(4H)-yl]-4-(dimethylamino)but-2-en-1-one (1:1)] | 3.89 | 1.31 | 1070 |
| CN(C)C/C=C/C(=O)N1CCn2nc(-c3ccc(C#N)cc3)c(-c3ccncc3)c2C1 [Example 33, 4-{5-[(2E)-4-(dimethylamino)but-2-enoyl]-3-(pyridin-4-yl)-4,5,6,7-tetrahydropyrazolo[1,5-a]pyrazin-2-yl}benzonitrile] | 67 | 8.35 | 1840 |
| CN(C)C/C=C/C(=O)N1CCn2nc(-c3ccc(C(F)(F)F)cc3)c(-c3ccncc3)c2C1 [Example 34, (2E)-4-(dimethylamino)-1-[3-(pyridin-4-yl)-2-[4-(trifluoromethyl)phenyl]-6,7-dihydropyrazolo[1,5-a]pyrazin-5(4H)-yl]but-2-en-1-one] | 4.32 | 1.37 | 198 |
| CN(C)C/C=C/C(=O)N1CCn2nc(-c3ccc(Cl)cc3CO)c(-c3ccncc3)c2C1 [Example 35, (2E)-1-{2-[4-chloro-2-(hydroxymethyl)phenyl]-3-(pyridin-4-yl)-6,7-dihydropyrazolo[1,5-a]pyrazin-5(4H)-yl}-4-(dimethylamino)but-2-en-1-one] | 2.94 | 1.36 | 802 |
| C=CC(=O)N1CCn2nc(-c3ccc(OC)c(Cl)c3)c(-c3ccncc3)c2C1 [Example 38, 1-[2-(3-chloro-4-methoxyphenyl)-3-(pyridin-4-yl)-6,7-dihydropyrazolo[1,5-a]pyrazin-5(4H)-yl]prop-2-en-1-one] | 0.489 | 0.554 | 32.1 |
| C=CC(=O)N1CCn2nc(-c3ccccc3OC)c(-c3ccncc3)c2C1 [Example 39, 1-[2-(2-methoxyphenyl)-3-(pyridin-4-yl)-6,7-dihydropyrazolo[1,5-a]pyrazin-5(4H)-yl]prop-2-en-1-one] | 18.3 | 37.6 | 622 |
| C=CC(=O)N1CCn2nc(-c3ccc(OC)cc3)c(-c3ccncc3)c2C1 [Example 41, 1-[2-(4-methoxyphenyl)-3-(pyridin-4-yl)-6,7-dihydropyrazolo[1,5-a]pyrazin-5(4H)-yl]prop-2-en-1-one] | 3.22 | 1.09 | 37.2 |
| C=CC(=O)N1CCn2nc(-c3ccc(OC)c(F)c3)c(-c3ccncc3)c2C1 [Example 42, 1-[2-(3-fluoro-4-methoxyphenyl)-3-(pyridin-4-yl)-6,7-dihydropyrazolo[1,5-a]pyrazin-5(4H)-yl]prop-2-en-1-one] | 6.31 | 1.01 | 53.6 |

Source: patent publication US20260365653A1, “IRREVERSIBLE MUTEGFR INHIBITORS” (Bayer Aktiengesellschaft, priority 2022, published 2026)
